Experimental data taken from patent US20230063462A1, “SULFONIMIDAMIDE COMPOUNDS AND COMPOSITIONS FOR TREATING CONDITIONS ASSOCIATED WITH NLRP ACTIVITY” (NOVARTIS AG, priority 2019, published 2023).

Tested on: THP-1 cells
Assay: hTHP-1 assay: gramicidin-stimulated IL-1β detection in PMA-treated THP-1 cells
Format: cell-based, human
Settings: Table B2, 10% FBS

SMILES	IC50 (class symbol)	IC50 (numeric value)
NS(=O)(=NC(=O)Nc1c2c(nc(C3CC3)c1C1CC1)CCC2)c1nn(C2CC2)cc1F (single isomer, unassigned) [Example 883, (S) or (R)-1-cyclopropyl-N′-((2,3-dicyclopropyl-6,7-dihydro-5H-cyclopenta[b]pyridin-4-yl)carbamoyl)-4-fluoro-1H-pyrazole-3-sulfonimidamide]	1000 to 5000 nM	1250 nM
NS(=O)(=NC(=O)Nc1c2c(nc3c1CCC31CC1)CCC2)c1ccn(C2CC2)n1 (single isomer, unassigned) [Example 884, (R) or (S)-1-cyclopropyl-N′-((1′,5′,6′,7′-tetrahydro-2′H-spiro[cyclopropane-1,3′-dicyclopenta[b,e]pyridin]-8′-yl)carbamoyl)-1H-pyrazole-3-sulfonimidamide]	40 to 200 nM	53.3 nM
NS(=O)(=NC(=O)Nc1c2c(nc3c1CCC31CC1)CCC2)c1ccn(C2CC2)n1 (single isomer, unassigned) [Example 885, (S) or (R)-1-cyclopropyl-N′-((1′,5′,6′,7′-tetrahydro-2′H-spiro[cyclopropane-1,3′-dicyclopenta[b,e]pyridin]-8′-yl)carbamoyl)-1H-pyrazole-3-sulfonimidamide]	1000 to 5000 nM	2260 nM
NS(=O)(=NC(=O)Nc1c2c(nc3c1CCC3)CCC2)c1ccn(C2CC2)n1 (single isomer, unassigned) [Example 886, (R) or (S)-1-cyclopropyl-N′-((1,2,3,5,6,7-hexahydrodicyclopenta [b,e]pyridin-8-yl)carbamoyl)-1H-pyrazole-3-sulfonimidamide]	200 to 1000 nM	270 nM
NS(=O)(=NC(=O)Nc1c2c(nc3c1CCC3)CCC2)c1ccn(C2CC2)n1 (single isomer, unassigned) [Example 887, (S) or (R)-1-cyclopropyl-N′-((1,2,3,5,6,7-hexahydrodicyclopenta [b,e]pyridin-8-yl)carbamoyl)-1H-pyrazole-3-sulfonimidamide]	5000 to 30000 nM	5880 nM
C[C@@H]1CCc2c1nc1c(c2NC(=O)N=S(N)(=O)c2ccn(C3CC3)n2)CCC1 (single isomer, unassigned) [Example 888, (R) or (S)-1-cyclopropyl-N′-(((R)-3-methyl-1,2,3,5,6,7-hexahydrodicyclopenta [b,e]pyridin-8-yl)carbamoyl)-1H-pyrazole-3-sulfonimidamide]	40 to 200 nM	49.4 nM
C[C@@H]1CCc2c1nc1c(c2NC(=O)N=S(N)(=O)c2ccn(C3CC3)n2)CCC1 (single isomer, unassigned) [Example 889, (S) or (R)-1-cyclopropyl-N′-(((R)-3-methyl-1,2,3,5,6,7-hexahydrodicyclopenta [b,e]pyridin-8-yl)carbamoyl)-1H-pyrazole-3-sulfonimidamide]	1000 to 5000 nM	1670 nM
Cc1c(C(F)(F)F)nc2c(c1NC(=O)N=S(N)(=O)c1ccn(C3CC3)n1)CCC2 (single isomer, unassigned) [Example 890, (R) or (S)-1-cyclopropyl-N′-((3-methyl-2-(trifluoromethyl)-6,7-dihydro-5H-cyclopenta [b]pyridin-4-yl)carbamoyl)-1H-pyrazole-3-sulfonimidamide]	40 to 200 nM	108 nM
Cc1c(C(F)(F)F)nc2c(c1NC(=O)N=S(N)(=O)c1ccn(C3CC3)n1)CCC2 (single isomer, unassigned) [Example 891, (S) or (R)-1-cyclopropyl-N′-((3-methyl-2-(trifluoromethyl)-6,7-dihydro-5H-cyclopenta [b]pyridin-4-yl)carbamoyl)-1H-pyrazole-3-sulfonimidamide]	5000 to 30000 nM	6510 nM
C[C@@H](O)Cn1cc(F)c(S(N)(=O)=NC(=O)Nc2c3c(nc4c2CCC42CC2)CCC3)n1 (single isomer, unassigned) [Example 892, (R) or (S)-4-fluoro-1-((R)-2-hydroxypropyl)-N′-((1′,5′,6′,7′-tetrahydro-2′H-spiro [cyclopropane-1,3′-dicyclopenta[b,e]pyridin]-8′-yl)carbamoyl)-1H-pyrazole-3-sulfonimidamide]	8 to 40 nM	12.7 nM
C[C@@H](O)Cn1cc(F)c(S(N)(=O)=NC(=O)Nc2c3c(nc4c2CCC42CC2)CCC3)n1 (single isomer, unassigned) [Example 893, (S) or (R)-4-fluoro-1-((R)-2-hydroxypropyl)-N′-((1′,5′,6′,7′-tetrahydro-2′H-spiro [cyclopropane-1,3′-dicyclopenta[b,e]pyridin]-8′-yl)carbamoyl)-1H-pyrazole-3-sulfonimidamide]	200 to 1000 nM	679 nM
C[C@H](O)Cn1cc(F)c(S(N)(=O)=NC(=O)Nc2c3c(nc4c2CCC42CC2)CCC3)n1 (single isomer, unassigned) [Example 896, (R) or (S)-4-fluoro-1-((S)-2-hydroxypropyl)-N′-((1′,5′,6′,7′-tetrahydro-2′H-spiro [cyclopropane-1,3′-dicyclopenta[b,e]pyridin]-8′-yl)carbamoyl)-1H-pyrazole-3-sulfonimidamide]	8 to 40 nM	13.6 nM
C[C@H](O)Cn1cc(F)c(S(N)(=O)=NC(=O)Nc2c3c(nc4c2CCC42CC2)CCC3)n1 (single isomer, unassigned) [Example 897, (S) or (R)-4-fluoro-1-((S)-2-hydroxypropyl)-N′-((1′,5′,6′,7′-tetrahydro-2′H-spiro [cyclopropane-1,3′-dicyclopenta[b,e]pyridin]-8′-yl)carbamoyl)-1H-pyrazole-3-sulfonimidamide]	200 to 1000 nM	310 nM
